In US5607691A, “Compositions and methods for enhanced drug delivery” (priority 1995, dated 1997):
Counter-ions that a name gives are not always drawn.

Assay: in vitro
Format: in vitro ADME, human
Conditions: human, serum, Table 5; human serum, 37° C.; read-out: Serum Half-life (converted)
Excerpt: Table 4 lists the serum half-lives for several model compounds and two representative pharmaceutical agent-chemical modifier complexes using an in vitro assay system described in the Experimental section below. Of course, the serum half-lives will vary in vivo depending upon the age and health condition of the patient. Each complex comprises a model compound or a pharmaceutical agent, a spacer group, and a chemical modifier. Many of the model compounds utilize 4-nitrophenyl(ethanol, propanol, or cyclohexanol) or 4-nitrophenylethylamine as the "model" pharmaceutical agent. A more complete listing of serum half-lives may be found in the Experimental section below.
General procedure for serum hydrolysis of pharmaceutical agent-modifier complexes
Stock solutions (6 mM) of the pharmaceutical agent-modifier complexes were prepared in ethanol (by vortexing, sonication or warming at 37° C. if necessary). If required for solubility, a drop of dimethylsulfoxide, dimethylformamide or methanol may be added. (Acetonitrile cannot be used because it deactivates the serum enzymes.)
HPLC separation methods were established for each study by dilution of the above stock solution (6 μl) in acetonitrile (1 ml) to give a 36 μM solution. Samples (10 μl) were injected onto a Nucleosil 5C8 (250×4 mmID) and guard column (11×4 mm ID) and eluted with a mobile phase of approximately 65% HPLC grade water and 35% of a solution of 0.1% trifluoroacetic acid in acetonitrile, the exact proportions being adjusted in each case to give optimum separation and run times.
Freshly defrosted human serum (3 ml, Sigma) was warmed at 37° C. for five minutes and then 60 μl of the agent-modifier complex stock solution was added with vortexing. […] The aliquots were added to 800 μl of 2% zinc sulfate solution in a 1.5 ml disposable microcentrifuge tube, vortexed immediately and centrifuged at 14,000 RPM for 3 minutes. The supernatants (10 μl) were then injected onto the HPLC and peak areas were used to determine the % remaining. Serum blanks were prepared similarly by addition of serum to the zinc sulfate solution followed by centrifugation, and time=0 samples were also prepared by adding serum to the zinc sulfate solution followed by addition of the complex and separation by centrifugation. The time=0 samples, as well as the original stock solutions, were also used to study the stability of the complex in the absence of enzyme. Half-lives were calculated using the equation
by plotting time (x) vs. ln % remaining (y) to obtain the slope (m) and the y intercept (b).

With `CC1OC(OC2C(O)CC(OC3C(O)CC(OC4CCC5(C)C(CCC6C5CC(O)C5(C)C(C7=CC(=O)OC7)CCC65O)C4)OC3C)OC2C)CC(O)C1OC(=O)OCC[N+](C)(C)C` (stereo not shown) [digoxin-4'"-(choline chloride) carbonate ester] as the compound, how does the half-life read?
Its half-life is 0.0219 h.

With `CC(CCCC(=O)OC1C(O)CC(OC2C(O)CC(OC3C(O)CC(OC4CCC5(C)C(CCC6C5CC(O)C5(C)C(C7=CC(=O)OC7)CCC65O)C4)OC3C)OC2C)OC1C)OC(=O)CCC[N+](C)(C)C` (stereo not shown) [digoxin-4'"-[5-(4-trimethylaminobutyroyloxy)-hexanoate] bromide salt] as the compound, how does the half-life read?
The half-life was 14 h.

Which half-life does the source give for `CC1OC(OC2C(O)CC(OC3C(O)CC(OC4CCC5(C)C(CCC6C5CC(O)C5(C)C(C7=CC(=O)OC7)CCC65O)C4)OC3C)OC2C)CC(O)C1OC(=O)C1CCC[N+]1(C)C` (stereo not shown) [digoxin-4'"-stachydrine ester, chloride salt] here?
Its half-life is 0.085 h.

Which half-life does the source give for `CC1OC(OC2CCC3(C)C(CCC4C3CC(OC(=O)CCC[N+](C)(C)C)C3(C)C(C5=CC(=O)OC5)CCC43O)C2)CC(O)C1OC1CC(O)C(OC2CC3OC(=O)OC3C(C)O2)C(C)O1` (stereo not shown) [digoxin-12-(4-trimethylaminobutyrate)-3'",4'"-cyclic carbonate, bromide salt] here?
The half-life was 96 h.

Which half-life does the source give for `CC1OC(OC2CCC3(C)C(CCC4C3CC(OC(=O)OC[N+](C)(C)C)C3(C)C(C5=CC(=O)OC5)CCC43O)C2)CC(O)C1OC1CC(O)C(OC2CC3OC(=O)OC3C(C)O2)C(C)O1` (stereo not shown) [digoxin-12-(N,N,N-trimethylaminomethyl)-carbonate 3"',4'"-cyclic carbonate, chloride salt] here?
Its half-life is 0.7 h.

With `CC1OC(OC2CCC3(C)C(CCC4C3CC(OC(=O)OCC[N+](C)(C)C)C3(C)C(C5=CC(=O)OC5)CCC43O)C2)CC(O)C1OC1CC(O)C(OC2CC3OC(=O)OC3C(C)O2)C(C)O1` (stereo not shown) [digoxin-12-(choline carbonate)-3'",4'"-cyclic carbonate, bromide salt] as the compound, how does the half-life read?
The half-life was 29 h.

With `C[C@H]1O[C@@H](O[C@H]2[C@@H](O)C[C@H](O[C@H]3[C@@H](O)C[C@H](O[C@H]4CC[C@@]5(C)[C@H](CC[C@@H]6[C@@H]5C[C@@H](OC(=O)OCCCCCCOC(=O)C[N+](C)(C)C)[C@]5(C)[C@@H](C7=CC(=O)OC7)CC[C@]65O)C4)O[C@@H]3C)O[C@@H]2C)C[C@@H]2OC(=O)O[C@@H]21` [digoxin-12-[1-(6-betainoyloxyhexyl)]carbonate-3"',4"'-cyclic carbonate, chloride salt] as the compound, how does the half-life read?
The half-life was 470 h.

Which half-life does the source give for `CC1OC(OC2CCC3(C)C(CCC4C3CC(OC(=O)CCCN(C)C)C3(C)C(C5=CC(=O)OC5)CCC43O)C2)CC(O)C1OC1CC(O)C(OC2CC3OC(=O)OC3C(C)O2)C(C)O1` (stereo not shown) [digoxin-12-[4-(N,N-dimethylamino)butyrate]-3"',4'"-cyclic carbonate, hydrochloride salt] here?
Its half-life is 24 h.

Which half-life does the source give for `CC(CCCC(=O)OC1CC2C(CCC3CC(OC4CC(O)C(OC5CC(O)C(OC6CC7OC(=O)OC7C(C)O6)C(C)O5)C(C)O4)CCC32C)C2(O)CCC(C3=CC(=O)OC3)C12C)OC(=O)CCC[N+](C)(C)C` (stereo not shown) [digoxin-12-[5-(4-trimethylaminobutyroyloxy)-hexanoate]-3'",4'"-cyclic carbonate] here?
The half-life was 504 h.

Which half-life does the source give for `CC1OC(OC2CCC3(C)C(CCC4C3CC(OC(=O)CCCCC[N+](C)(C)C)C3(C)C(C5=CC(=O)OC5)CCC43O)C2)CC(O)C1OC1CC(O)C(OC2CC3OC(=O)OC3C(C)O2)C(C)O1` (stereo not shown) [digoxin-12-[6-(N,N,N-trimethylamino)hexanoate]-3'"-4'"-cyclic carbonate, bromide salt] here?
The half-life was 336 h.

For `CC1OC(OC2CCC3(C)C(CCC4C3CC(OC(=O)CCCCCN(C)C)C3(C)C(C5=CC(=O)OC5)CCC43O)C2)CC(O)C1OC1CC(O)C(OC2CC3OC(=O)OC3C(C)O2)C(C)O1` (stereo not shown) [digoxin-12-[6-(N,N-dimethylamino)hexanoate]-3'",4'"-cyclic carbonate], which half-life is on record?
Its half-life is 605 h.

For `C[C@H]1O[C@@H](O[C@H]2[C@@H](O)C[C@H](O[C@H]3[C@@H](O)C[C@H](O[C@H]4CC[C@@]5(C)[C@H](CC[C@@H]6[C@@H]5C[C@@H](OC(=O)OC[N+](C)(C)CCCCCC(=O)O)[C@]5(C)[C@@H](C7=CC(=O)OC7)CC[C@]65O)C4)O[C@@H]3C)O[C@@H]2C)C[C@@H]2OC(=O)O[C@@H]21` [digoxin-12-[N-(5-carboxypentyl)-N,N-dimethylaminomethyl carbonate]-3"',4"'-cyclic carbonate, bromide salt], which half-life is on record?
Its half-life is 0.8 h.

With `C[C@H]1O[C@@H](O[C@H]2[C@@H](O)C[C@H](O[C@H]3[C@@H](O)C[C@H](O[C@H]4CC[C@@]5(C)[C@H](CC[C@@H]6[C@@H]5C[C@@H](OC(=O)c5cccnc5)[C@]5(C)[C@@H](C7=CC(=O)OC7)CC[C@]65O)C4)O[C@@H]3C)O[C@@H]2C)C[C@@H]2OC(=O)O[C@@H]21` [digoxin-12-nicotinate ester-3"',4"'-cyclic carbonate] as the compound, how does the half-life read?
Its half-life is 331 h.

For `C[C@H]1O[C@@H](O[C@H]2[C@@H](O)C[C@H](O[C@H]3[C@@H](O)C[C@H](O[C@H]4CC[C@@]5(C)[C@H](CC[C@@H]6[C@@H]5C[C@@H](OC(=O)[C@@H]5CCC[N+]5(C)C)[C@]5(C)[C@@H](C7=CC(=O)OC7)CC[C@]65O)C4)O[C@@H]3C)O[C@@H]2C)C[C@@H]2OC(=O)O[C@@H]21` [digoxin-12-stachydrine ester-3"',4"'-cyclic carbonate, chloride salt], which half-life is on record?
Its half-life is 4.9 h.

Which half-life does the source give for `C[C@]12CCC(=O)C(OC(=O)OCC[N+](C)(C)C)=C1CC[C@@H]1[C@@H]2CC[C@]2(C)C(=O)CC[C@@H]12` [formestane-4-choline carbonate, bromide salt] here?
Its half-life is 0.433 h.

For `CCCC[N+](C)(C)CCOC(=O)Cc1c(C)n(C(=O)c2ccc(Cl)cc2)c2ccc(OC)cc12` [indomethacin 2-(N-(1-butyl)-N,N-dimethylaminoethyl ester, bromide salt], which half-life is on record?
The half-life was 0.0106 h.

For `COc1ccc2c(c1)c(CC(=O)OCC[N+](C)(C)CCO)c(C)n2C(=O)c1ccc(Cl)cc1` [indomethacin 2-(N-(2-hydroxyethyl)-N,N-dimethyl) aminoethyl ester, bromide salt], which half-life is on record?
The half-life was 0.0163 h.

With `COc1ccc2c(c1)c(CC(=O)OCCNC(=O)CCCCC[N+](C)(C)C)c(C)n2C(=O)c1ccc(Cl)cc1` [indomethacin 2-[N-(6'-N',N',N'-trimethylamino)-hexanamido]ethyl ester, iodide salt] as the compound, how does the half-life read?
Its half-life is 22.6 h.

With `COc1ccc2c(c1)c(CC(=O)OCCNC(=O)CCCCCN(C)C)c(C)n2C(=O)c1ccc(Cl)cc1` [indomethacin 2-[N-(6'-N',N'-dimethylamino)hexanamido]ethyl ester] as the compound, how does the half-life read?
The half-life was 13.6 h.

For `COc1ccc2c(c1)c(CC(=O)OCCN(C)C(=O)CCCCC[N+](C)(C)C)c(C)n2C(=O)c1ccc(Cl)cc1` [indomethacin 2-[N-methyl-N-(6'-N',N',N'-trimethyl-amino)hexanamido]ethyl ester, iodide salt], which half-life is on record?
Its half-life is 3.4 h.

For `COc1ccc2c(c1)c(CC(=O)OCCN(C)C(=O)CCCCCN(C)C)c(C)n2C(=O)c1ccc(Cl)cc1` [indomethacin 2-[N-methyl-N-(6'-N',N'-dimethylamino)hexanamido]ethyl ester], which half-life is on record?
The half-life was 0.225 h.

Which half-life does the source give for `COc1ccc2c(c1)c(CC(=O)OCOC(=O)CCCCCNC(=O)C[C@H](C[N+](C)(C)C)OC(C)=O)c(C)n2C(=O)c1ccc(Cl)cc1` [indomethacin 6-(O-acetyl-L-carnitinamido)hexanoyloxymethyl ester, chloride salt] here?
Its half-life is 0.5 h.

For `CCN(CC)C(=O)COC(=O)Cc1c(C)n(C(=O)c2ccc(Cl)cc2)c2ccc(OC)cc12` [indomethacin (N,N-diethylglycolamide) ester], which half-life is on record?
Its half-life is 0.38 h.

Which half-life does the source give for `CCOC(=O)Cc1c(C)n(C(=O)c2ccc(Cl)cc2)c2ccc(OC)cc12` [indomethacin ethyl ester, reference compound] here?
Its half-life is over 96 h.

For `COc1ccc2c(c1)c(CC(=O)COC(=O)OCC[N+](C)(C)C)c(C)n2C(=O)c1ccc(Cl)cc1` [indomethacin hydroxymethyl ketone choline iodide carbonate], which half-life is on record?
The half-life was 0.0181 h.

For `COc1ccc2c(c1)c(CC(=O)CO)c(C)n2C(=O)c1ccc(Cl)cc1` [indomethacin hydroxymethyl ketone], which half-life is on record?
Its half-life is 15 h.

Which half-life does the source give for `COC(=O)Cc1c(C)n(C(=O)c2ccc(Cl)cc2)c2ccc(OC)cc12` [indomethacin methyl ester, reference compound] here?
Its half-life is 144 h.

Which half-life does the source give for `CC(=O)O[C@H](CC(=O)OC1N=C(c2ccccc2Cl)c2cc(Cl)ccc2NC1=O)C[N+](C)(C)C` (stereo partly shown) [lorazepam-3-(O-acetylcarnitine) ester chloride salt] here?
The half-life was 5.2 h.

Which half-life does the source give for `C[N+](C)(C)CCOC(=O)OC1N=C(c2ccccc2Cl)c2cc(Cl)ccc2NC1=O` (stereo not shown) [lorazepam-3-choline carbonate, chloride salt] here?
The half-life was 2.2 h.

With `COc1ccc2c(c1)c(CCNC(C)=O)cn2C(=O)OCC[N+](C)(C)C` [melatonin-1-choline carbamate, bromide salt] as the compound, how does the half-life read?
The half-life was 15 h.

Same assay, conditions: human, serum, untitled table of digoxin derivatives (position/substituent); assay not given; read-out: Half Life (converted)

Which half-life does the source give for `CC1OC(OC2CCC3(C)C(CCC4C3CC(OC(=O)CCC[N+](C)(C)C)C3(C)C(C5=CC(=O)OC5)CCC43O)C2)CC(O)C1OC1CC(O)C(OC2CC3OC(=O)OC3C(C)O2)C(C)O1` (stereo not shown) [digoxin-12-(4-trimethylaminobutyrate)-3'",4'"-cyclic carbonate, bromide salt] here?
The half-life was 96 h.
